In this assay the target is T1, recombinant HIV-1 protease expressed in E. Coli (Human immunodeficiency virus type 1 group M subtype B, UniProt P04585).
T1 construct: Enzyme: recombinant HIV-1 protease expressed in E. Coli; purchased Bachem California, Inc. (Torrance, Calif.) H-9040; host or cells: E. coli
As to the kind of experiment: HIV-1 Protease Enzyme Assay (Ki), fluorimetric detection of hexapeptide substrate cleavage. Format: biochemical. The note with it: recombinant HIV-1 protease 1 to 2.5 nM, substrate 40 μM, pH 5.3, 37° C., tight-binding competitive inhibition. From the text:
Biological Assays Used for the Characterization of HIV Protease Inhibitors HIV-1 Protease Enzyme Assay (Ki)
The assay is based on the fluorimetric detection of synthetic hexapeptide substrate cleavage by HIV-1 protease in a defined reaction buffer as initially described by M. V. Toth and G. R. Marshall, Int. J. Peptide Protein Res. 36, 544 (1990)
Substrate: (2-aminobenzoyl)Thr-Ile-Nle-(p-nitro)Phe-Gln-Arg
Substrate supplied by Bachem California, Inc. (Torrance, Calif.; Cat. no. H-2992)
Enzyme: recombinant HIV-1 protease expressed in E. Coli
Enzyme supplied by Bachem California, Inc. (Torrance, Calif.; Cat. no. H-9040)
Reaction buffer: 100 mM ammonium acetate, pH 5.3
• 1 M sodium chloride • 1 mM ethylendiaminetetraacetic acid • 1 mM dithiothreitol • 10% dimethylsulfoxide Assay Protocol for the Determination of Inhibition Constant Ki: • 1. Prepare series of solutions containing identical amount of the enzyme (1 to 2.5 nM) and a tested inhibitor at different concentrations in the reaction buffer • 2. Transfer the solutions (190 μL each) into a white 96-well plate • 3. Preincubate for 15 min at 37° C. • 4. Solubilize the substrate in 100% dimethylsulfoxide at a concentration of 800 μM. Start the reaction by adding 10 μL of 800 μM substrate into each well (final substrate concentration of 40 μM) • 5. […]

Take `CCOP(=O)(COc1ccc(C[C@H](NC(=O)O[C@H]2CO[C@H]3OCC[C@H]32)[C@@H](O)CN(Cc2ccc(-c3ccccn3)cc2)NC(=O)[C@@H](NC(=O)OC)C(C)(C)C)cc1)OCC` [Example AY]: the Ki (in general, a measure of affinity in units of concentration, obtained from inhibition or displacement) was < 0.03 nM.

The record behind these values is patent publication US7723380B2, “Antiviral protease inhibitors” (Gilead Sciences, Inc., priority 2006, dated 2010).
